# Source: ChEMBL document CHEMBL4257449, “New N-(2-phenyl-4-oxo-1,3-thiazolidin-3-yl)-1,2-benzothiazole-3-carboxamides and acetamides as antimicrobial agents” (2017)
# Columns and labels:
# [1] = system: Listeria monocytogenes; test: Bactericidal activity against Listeria monocytogenes NCTC 7973 incubated for 24 hrs followed by serial sub-cultivation and measured after 24 hrs by microdilution method; type: functional
# [2] = system: Bacillus cereus; test: Antibacterial activity against Bacillus cereus after 24 hrs by microdilution method; type: functional
# [3] = system: Salmonella typhimurium; test: Bactericidal activity against Salmonella typhimurium ATCC 13311 incubated for 24 hrs followed by serial sub-cultivation and measured after 24 hrs by microdilution method; type: functional, Salmonella enterica subsp. enterica serovar Typhimurium
# [4] = system: Aspergillus ochraceus; test: Antifungal activity against Aspergillus ochraceus ATCC 12066 after 72 hrs by serial dilution method; type: functional; conditions: ATCC 12066, 72 h
# [5] = system: Staphylococcus aureus; test: Bactericidal activity against Staphylococcus aureus ATCC 6538 incubated for 24 hrs followed by serial sub-cultivation and measured after 24 hrs by microdilution method; type: functional
# [6] = system: Candida albicans; test: Antifungal activity against Candida albicans after 72 hrs by serial dilution method; type: functional
# [7] = system: Listeria monocytogenes; test: Antibacterial activity against Listeria monocytogenes NCTC 7973 after 24 hrs by microdilution method; type: functional; conditions: NCTC 7973, 24 h
# [8] = system: Aspergillus versicolor; test: Fungicidal activity against Aspergillus versicolor ATCC 11730 incubated for 72 hrs followed by serial sub-cultivation for 72 hrs and measured after 72 hrs by serial dilution method; type: functional
# [9] = system: Aspergillus fumigatus; test: Fungicidal activity against Aspergillus fumigatus incubated for 72 hrs followed by serial sub-cultivation for 72 hrs and measured after 72 hrs by serial dilution method; type: functional
# [10] = system: Staphylococcus aureus; test: Antibacterial activity against Staphylococcus aureus ATCC 6538 after 24 hrs by microdilution method; type: functional; conditions: ATCC 6538, 24 h
# [11] = system: Micrococcus flavus; test: Antibacterial activity against Micrococcus flavus ATCC 10240 after 24 hrs by microdilution method; type: functional; conditions: ATCC 10240, 24 h
# [12] = system: Pseudomonas aeruginosa; test: Bactericidal activity against Pseudomonas aeruginosa ATCC 27853 incubated for 24 hrs followed by serial sub-cultivation and measured after 24 hrs by microdilution method; type: functional
# [13] = system: Trichoderma viride; test: Fungicidal activity against Trichoderma viride IAM 5061 incubated for 72 hrs followed by serial sub-cultivation for 72 hrs and measured after 72 hrs by serial dilution method; type: functional
# [14] = system: Aspergillus niger; test: Fungicidal activity against Aspergillus niger ATCC 6275 incubated for 72 hrs followed by serial sub-cultivation for 72 hrs and measured after 72 hrs by serial dilution method; type: functional
# [15] = system: Enterobacter cloacae; test: Antibacterial activity against Enterobacter cloacae after 24 hrs by microdilution method; type: functional
# [16] = system: Talaromyces funiculosus; test: Fungicidal activity against Penicillium funiculosum ATCC 36839 incubated for 72 hrs followed by serial sub-cultivation for 72 hrs and measured after 72 hrs by serial dilution method; type: functional
# [17] = system: Escherichia coli; test: Antibacterial activity against Escherichia coli ATCC 35210 after 24 hrs by microdilution method; type: functional; conditions: ATCC 35210, 24 h
# [18] = system: Aspergillus niger; test: Antifungal activity against Aspergillus niger ATCC 6275 after 72 hrs by serial dilution method; type: functional; conditions: ATCC 6275, 72 h
# [19] = system: Aspergillus versicolor; test: Antifungal activity against Aspergillus versicolor ATCC 11730 after 72 hrs by serial dilution method; type: functional; conditions: ATCC 11730, 72 h
# [20] = system: Trichoderma viride; test: Antifungal activity against Trichoderma viride IAM 5061 after 72 hrs by serial dilution method; type: functional; conditions: IAM 5061, 72 h
# [21] = system: Pseudomonas aeruginosa; test: Antibacterial activity against Pseudomonas aeruginosa ATCC 27853 after 24 hrs by microdilution method; type: functional; conditions: ATCC 27853, 24 h
# [22] = system: Penicillium ochrochloron; test: Fungicidal activity against Penicillium ochrochloron ATCC 9112 incubated for 72 hrs followed by serial sub-cultivation for 72 hrs and measured after 72 hrs by serial dilution method; type: functional
# [23] = system: Candida albicans; test: Fungicidal activity against Candida albicans incubated for 72 hrs followed by serial sub-cultivation for 72 hrs and measured after 72 hrs by serial dilution method; type: functional
# [24] = system: Aspergillus fumigatus; test: Antifungal activity against Aspergillus fumigatus after 72 hrs by serial dilution method; type: functional
# [25] = system: Bacillus cereus; test: Bactericidal activity against Bacillus cereus incubated for 24 hrs followed by serial sub-cultivation and measured after 24 hrs by microdilution method; type: functional
# [26] = system: Aspergillus ochraceus; test: Fungicidal activity against Aspergillus ochraceus ATCC 12066 incubated for 72 hrs followed by serial sub-cultivation for 72 hrs and measured after 72 hrs by serial dilution method; type: functional
# [27] = system: Penicillium ochrochloron; test: Antifungal activity against Penicillium ochrochloron ATCC 9112 after 72 hrs by serial dilution method; type: functional; conditions: ATCC 9112, 72 h
# [28] = system: Escherichia coli; test: Bactericidal activity against Escherichia coli ATCC 35210 incubated for 24 hrs followed by serial sub-cultivation and measured after 24 hrs by microdilution method; type: functional
# [29] = system: Enterobacter cloacae; test: Bactericidal activity against Enterobacter cloacae incubated for 24 hrs followed by serial sub-cultivation and measured after 24 hrs by microdilution method; type: functional
# [30] = system: Talaromyces funiculosus; test: Antifungal activity against Penicillium funiculosum ATCC 36839 after 72 hrs by serial dilution method; type: functional; conditions: ATCC 36839, 72 h
# [31] = system: Salmonella typhimurium; test: Antibacterial activity against Salmonella typhimurium ATCC 13311 after 24 hrs by microdilution method; type: functional, Salmonella enterica subsp. enterica serovar Typhimurium; conditions: Salmonella enterica, ATCC 13311, 24 h
# [32] = system: Micrococcus flavus; test: Bactericidal activity against Micrococcus flavus ATCC 10240 incubated for 24 hrs followed by serial sub-cultivation and measured after 24 hrs by microdilution method; type: functional
structure (smiles),measurement,setting,value
O=C(Cc1nsc2ccccc12)NN1C(=O)CSC1c1ccc(Cl)cc1 (stereo not drawn),MBC99.5,[1],111.6 ×10⁻² umol/ml
same,MIC,[2],100 µM
same,MBC99.5,[3],74.4 ×10⁻² umol/ml
same,MIC,[4],100 µM
same,MBC99.5,[5],37.2 ×10⁻² umol/ml
same,MIC,[6],198 µM
same,MIC,[7],744 µM
same,MFC99.5,[8],19.8 ×10⁻² umol/ml
same,MFC99.5,[9],74.4 ×10⁻² umol/ml
same,MIC,[10],198 µM
same,MIC,[11],273 µM
same,MBC99.5,[12],74.4 ×10⁻² umol/ml
same,MFC99.5,[13],19.8 ×10⁻² umol/ml
same,MFC99.5,[14],37.2 ×10⁻² umol/ml
same,MIC,[15],570 µM
same,MFC99.5,[16],19.8 ×10⁻² umol/ml
same,MIC,[17],273 µM
same,MIC,[18],198 µM
same,MIC,[19],100 µM
same,MIC,[20],100 µM
same,MIC,[21],372 µM
same,MFC99.5,[22],19.8 ×10⁻² umol/ml
same,MFC99.5,[23],37.2 ×10⁻² umol/ml
same,MIC,[24],372 µM
same,MBC99.5,[25],19.8 ×10⁻² umol/ml
same,MFC99.5,[26],19.8 ×10⁻² umol/ml
same,MIC,[27],100 µM
same,MBC99.5,[28],37.2 ×10⁻² umol/ml
same,MBC99.5,[29],74.4 ×10⁻² umol/ml
same,MIC,[30],144 µM
same,MIC,[31],372 µM
same,MBC99.5,[32],37.2 ×10⁻² umol/ml
O=C(NN1C(=O)CSC1c1c(Cl)cccc1Cl)c1nsc2ccccc12 (stereo not drawn),MBC99.5,[1],79 ×10⁻² umol/ml
same,MIC,[2],395 µM
same,MBC99.5,[3],79 ×10⁻² umol/ml
same,MIC,[4],94.5 µM
same,MBC99.5,[5],39.5 ×10⁻² umol/ml
same,MIC,[6],395 µM
same,MIC,[7],395 µM
same,MFC99.5,[8],70.8 ×10⁻² umol/ml
same,MFC99.5,[9],79 ×10⁻² umol/ml
same,MIC,[10],189 µM
same,MIC,[11],543 µM
same,MBC99.5,[12],39.5 ×10⁻² umol/ml
same,MFC99.5,[13],18.9 ×10⁻² umol/ml
same,MFC99.5,[14],79 ×10⁻² umol/ml
same,MIC,[15],543 µM
same,MFC99.5,[16],79 ×10⁻² umol/ml
same,MIC,[17],543 µM
same,MIC,[18],395 µM
same,MIC,[19],189 µM
same,MIC,[20],132 µM
same,MIC,[21],189 µM
same,MFC99.5,[22],79 ×10⁻² umol/ml
same,MFC99.5,[23],79 ×10⁻² umol/ml
same,MIC,[24],395 µM
same,MBC99.5,[25],79 ×10⁻² umol/ml
same,MFC99.5,[26],18.9 ×10⁻² umol/ml
same,MIC,[27],395 µM
same,MBC99.5,[28],79 ×10⁻² umol/ml
same,MBC99.5,[29],79 ×10⁻² umol/ml
same,MIC,[30],395 µM
same,MIC,[31],395 µM
same,MBC99.5,[32],79 ×10⁻² umol/ml
O=C(Cc1nsc2ccccc12)NN1C(=O)CSC1c1c(F)cccc1F (stereo not drawn),MBC99.5,[1],74 ×10⁻² umol/ml
same,MIC,[2],198 µM
same,MBC99.5,[3],37 ×10⁻² umol/ml
same,MIC,[4],74 µM
same,MBC99.5,[5],37 ×10⁻² umol/ml
same,MIC,[6],99 µM
same,MIC,[7],543 µM
same,MFC99.5,[8],9.9 ×10⁻² umol/ml
same,MFC99.5,[9],37 ×10⁻² umol/ml
same,MIC,[10],198 µM
same,MIC,[11],272 µM
same,MBC99.5,[12],37 ×10⁻² umol/ml
same,MFC99.5,[13],9.9 ×10⁻² umol/ml
same,MFC99.5,[14],19.8 ×10⁻² umol/ml
same,MIC,[15],198 µM
same,MFC99.5,[16],9.9 ×10⁻² umol/ml
same,MIC,[17],272 µM
same,MIC,[18],148 µM
same,MIC,[19],74 µM
same,MIC,[20],74 µM
same,MIC,[21],272 µM
same,MFC99.5,[22],19.8 ×10⁻² umol/ml
same,MFC99.5,[23],19.8 ×10⁻² umol/ml
same,MIC,[24],296 µM
same,MBC99.5,[25],37 ×10⁻² umol/ml
same,MFC99.5,[26],9.9 ×10⁻² umol/ml
same,MIC,[27],148 µM
same,MBC99.5,[28],37 ×10⁻² umol/ml
same,MBC99.5,[29],37 ×10⁻² umol/ml
same,MIC,[30],74 µM
same,MIC,[31],198 µM
same,MBC99.5,[32],37 ×10⁻² umol/ml
O=C(Cc1nsc2ccccc12)N/N=C/c1c(F)cccc1Cl,MBC99.5,[1],96.4 ×10⁻² umol/ml
same,MIC,[2],241 µM
same,MBC99.5,[3],48.2 ×10⁻² umol/ml
same,MIC,[4],116 µM
same,MBC99.5,[5],48.2 ×10⁻² umol/ml
same,MIC,[6],464 µM
same,MIC,[7],482 µM
same,MFC99.5,[8],23.2 ×10⁻² umol/ml
same,MFC99.5,[9],92.8 ×10⁻² umol/ml
same,MIC,[10],241 µM
same,MIC,[11],362 µM
same,MBC99.5,[12],48.2 ×10⁻² umol/ml
same,MFC99.5,[13],23.2 ×10⁻² umol/ml
same,MFC99.5,[14],23.2 ×10⁻² umol/ml
same,MIC,[15],362 µM
same,MFC99.5,[16],23.2 ×10⁻² umol/ml
same,MIC,[17],362 µM
same,MIC,[18],116 µM
same,MIC,[19],116 µM
same,MIC,[20],116 µM
same,MIC,[21],362 µM
same,MFC99.5,[22],23.2 ×10⁻² umol/ml
same,MFC99.5,[23],58 ×10⁻² umol/ml
same,MIC,[24],464 µM
same,MBC99.5,[25],48.2 ×10⁻² umol/ml
same,MFC99.5,[26],23.2 ×10⁻² umol/ml
same,MIC,[27],116 µM
same,MBC99.5,[28],48.2 ×10⁻² umol/ml
same,MBC99.5,[29],48.2 ×10⁻² umol/ml
same,MIC,[30],116 µM
same,MIC,[31],241 µM
same,MBC99.5,[32],48.2 ×10⁻² umol/ml
